From US20170105981A1, “METHODS FOR STABILIZING HYPOXIA INDUCIBLE FACTOR-2 ALPHA AS A METHOD FOR TREATING CANCER” (The Ohio State Innovation Foundation, priority 2011, published 2017)

How the values were obtained:
A2780/CP tumor cells = assay: A2780/CP ovarian tumor xenograft model; format: in vivo, female athymic nude mice
Experimental: The compound tested, {[5-(3-fluorophenyl)-3-hydroxypyridine-2-carbonyl]-amino} acetic acid, was formulated in a 0.25% hydroxypropyl methyl cellulose/0.1% Tween™ 80 solution in reverse osmosis deionized water. The test compound was reconstituted at concentrations of 1.8 and 3.6 mg/ml as instructed on each vial to deliver doses of 18 and 36 mg/kg, respectively, at a […] dose volume. Solutions of the test compound were prepared weekly and stored at 4° C. protected from light. All formulations were removed from the refrigerator and stirred for 30 minutes before dosing, and continuously stirred during dosing.
The vehicle control was prepared by making a solution of 0.25% hydroxypropyl methyl cellulose/0.1% Tween™ 80 solution in reverse osmosis deionized water.
A2780/CP ovarian tumor cell line was received from Sigma-Aldrich (St. Louis, Mo.). Cultures were maintained in RPMI 1640 (Hyclone, Logan, Utah), supplemented with 10% fetal bovine serum, and housed in a 5% CO2 atmosphere. The cultures were expanded in tissue culture flasks at a 1:3 split ratio until a sufficient yield of cells was achieved.
Female athymic nude mice were supplied by Harlan (Indianapolis, Ind.). Mice were received at four to five weeks of age, 12-15 grams in weight, and were acclimated for seven days prior to handling. The mice were housed in microisolator cages and maintained under specific pathogen-free conditions. The mice were fed Tekland Global Diet™ 2920x irradiated laboratory animal diet (Harlan, Indianapolis, Ind.) and autoclaved water was freely available.
Sixty female mice were inoculated subcutaneously in the right flank with 0.1 ml of a 50% RPMI/50% Matrigel™ (BD Biosciences, Bedford, Mass.) mixture containing a suspension of A2780/CP tumor cells (approximately 1.0×10^7 cells/mouse).
Three days following inoculation, tumors were measured using calipers and tumor weight was calculated using the animal study management software. Thirty mice with tumor sizes of 80.4-170.6 mg were randomized into three groups often mice (Groups 1-3) by random equilibration. Body weights were recorded when the mice were randomized and were taken twice per week thereafter in conjunction with tumor measurements.
Animals were treated until the study endpoint. Group I received only vehicle (control). Group II was given doses of 1.8 mg/mL {[5-(3-fluorophenyl)-3-hydroxypyridine-2-carbonyl]-amino} acetic acid while Group III was given doses of 3.6 mg/mL {[5-(3-fluorophenyl)-3-hydroxypyridine-2-carbonyl]-amino} acetic acid. All doses were given via oral administration (PO). The administered volume of each dose was approximately 1 mL/100 g body weight of animal.
Tumor mass (mg) was determined using the formula:
where “a” is the largest diameter and “b” is the smallest diameter. Measurements were made using calipers. The mean tumor size when study began was 100-125 mg. On day one of the study, animals were randomly assigned to the three groups described above.
Tumors were collected from Groups 1-3 of the main study when individual tumors reached a tumor weight of ≧2000 mg by using the procedure above. Tumor size measurements and animal body weight were taken twice weekly.

[1] = tested on: endothelial cell marker CD31; assay: Tumor vascularity by CD31 immunohistochemistry in melanoma-bearing mice; format: in vivo; conditions: mice treated with the control antibody; p=0.022; FIG. 14B
VEGF mRNA = VEGF mRNA expression (qPCR) in HIF-1α−/− fibroblasts; format: cell-based, murine; conditions: hypoxic conditions (1% O2), 1, 10 and 100 μM, vs. hypoxia control, FIG. 1B
Experimental: Total RNA was isolated from tissues and cells by using TRIzol™ Reagent (Invitrogen) and the RNeasy kit (Qiagen), respectively. 1 μg RNA was used for reverse transcription using SuperScript II First-Strand Synthersis System (Invitrogen). cDNA's were amplified in a SYR Green or TaqMan Universal Master Mix (Applied Biosystems). Quantitative PCR (qPCR) was performed on ABI Prism 7700 sequence detection system. PCR conditions are: 10 min at 95° C., 40 cycles of 15 seconds at 95° C. and 1 minute at 60° C. The relative amount of mRNA was calculated after normalization to β-actin.
Cells were cultured in DMEM (#11965-092, Invitrogen) supplemented with 10% fetal bovine serum (Invitrogen), 100 U/mL penicillin and […] streptomycin. For glucose deprivation, DMEM without glucose (#11966-025, Invitrogen) was used.
Mouse embryonic fibroblasts (MEFs) were isolated from E12.5 embryos and immortalized by stable transfection with SV40 large T antigen.

For `O=C(O)CNC(=O)c1ncc(-c2cccc(F)c2)cc1O` [disclosed HIF-2α stabilizer, {[5-(3-Fluorophenyl)-3-hydroxypyridine-2-carbonyl]amino} acetic acid], the “Mean Tumor Mass” value (A2780/CP tumor cells; 18 mg/kg QD PO, study day 1) was 119.6 mg, the “Median Tumor Mass” value (A2780/CP tumor cells; 18 mg/kg QD PO, study day 1) was 121.3 mg and the “Mean Tumor Mass” value (A2780/CP tumor cells; 18 mg/kg QD PO, study day 4) was 188.2 mg. For the same compound, the “Median Tumor Mass” value (A2780/CP tumor cells; 18 mg/kg QD PO, study day 4) was 191.0 mg, the “No. Surviving Animals” value (A2780/CP tumor cells; 18 mg/kg QD PO, study day 4) was 10 and the Wgt % change (A2780/CP tumor cells; 18 mg/kg QD PO, study day 4) was −0.31%. The “Mean Tumor Mass” value (A2780/CP tumor cells; 18 mg/kg QD PO, study day 8) was 326.9 mg, the “Median Tumor Mass” value (A2780/CP tumor cells; 18 mg/kg QD PO, study day 8) was 243.8 mg and the “No. Surviving Animals” value (A2780/CP tumor cells; 18 mg/kg QD PO, study day 8) was 10. The Wgt % change (A2780/CP tumor cells; 18 mg/kg QD PO, study day 8) was 4.40%, the “Mean Tumor Mass” value (A2780/CP tumor cells; 18 mg/kg QD PO, study day 11) was 682.8 mg and the “Median Tumor Mass” value (A2780/CP tumor cells; 18 mg/kg QD PO, study day 11) was 528.0 mg. The “No. Surviving Animals” value (A2780/CP tumor cells; 18 mg/kg QD PO, study day 11) was 10, the Wgt % change (A2780/CP tumor cells; 18 mg/kg QD PO, study day 11) was 6.02% and the “Mean Tumor Mass” value (A2780/CP tumor cells; 18 mg/kg QD PO, study day 16) was 2508.0 mg. For the same compound, the “Median Tumor Mass” value (A2780/CP tumor cells; 18 mg/kg QD PO, study day 16) was 1826.2 mg, the “No. Surviving Animals” value (A2780/CP tumor cells; 18 mg/kg QD PO, study day 16) was 10 and the Wgt % change (A2780/CP tumor cells; 18 mg/kg QD PO, study day 16) was 16.40%. For the same compound, the “Mean Tumor Mass” value (A2780/CP tumor cells; 18 mg/kg QD PO, study day 19) was 2647.4 mg, the “Median Tumor Mass” value (A2780/CP tumor cells; 18 mg/kg QD PO, study day 19) was 3030.1 mg and the “No. Surviving Animals” value (A2780/CP tumor cells; 18 mg/kg QD PO, study day 19) was 6. For the same compound, the Wgt % change (A2780/CP tumor cells; 18 mg/kg QD PO, study day 19) was 16.82%, the “Mean Tumor Mass” value (A2780/CP tumor cells; 18 mg/kg QD PO, study day 22) was 1761.6 mg and the “Median Tumor Mass” value (A2780/CP tumor cells; 18 mg/kg QD PO, study day 22) was 1761.6 mg. For the same compound, the “No. Surviving Animals” value (A2780/CP tumor cells; 18 mg/kg QD PO, study day 22) was 1, the Wgt % change (A2780/CP tumor cells; 18 mg/kg QD PO, study day 22) was 19.43% and the “Mean Tumor Mass” value (A2780/CP tumor cells; 18 mg/kg QD PO, study day 25) was 2838.3 mg. The “Median Tumor Mass” value (A2780/CP tumor cells; 18 mg/kg QD PO, study day 25) was 2838.3 mg, the “No. Surviving Animals” value (A2780/CP tumor cells; 18 mg/kg QD PO, study day 25) was 1 and the Wgt % change (A2780/CP tumor cells; 18 mg/kg QD PO, study day 25) was 19.43%. The “Mean Tumor Mass” value (A2780/CP tumor cells; 36 mg/kg QD PO, study day 1) was 120.3 mg, the “Median Tumor Mass” value (A2780/CP tumor cells; 36 mg/kg QD PO, study day 1) was 123.3 mg and the “Mean Tumor Mass” value (A2780/CP tumor cells; 36 mg/kg QD PO, study day 4) was 186.4 mg. For the same compound, the “Median Tumor Mass” value (A2780/CP tumor cells; 36 mg/kg QD PO, study day 4) was 182.8 mg, the “No. Surviving Animals” value (A2780/CP tumor cells; 36 mg/kg QD PO, study day 4) was 10 and the Wgt % change (A2780/CP tumor cells; 36 mg/kg QD PO, study day 4) was −0.41%. The “Mean Tumor Mass” value (A2780/CP tumor cells; 36 mg/kg QD PO, study day 8) was 312.8 mg, the “Median Tumor Mass” value (A2780/CP tumor cells; 36 mg/kg QD PO, study day 8) was 323.4 mg and the “No. Surviving Animals” value (A2780/CP tumor cells; 36 mg/kg QD PO, study day 8) was 10. For the same compound, the Wgt % change (A2780/CP tumor cells; 36 mg/kg QD PO, study day 8) was 4.04%, the “Mean Tumor Mass” value (A2780/CP tumor cells; 36 mg/kg QD PO, study day 11) was 708.1 mg and the “Median Tumor Mass” value (A2780/CP tumor cells; 36 mg/kg QD PO, study day 11) was 830.4 mg. The “No. Surviving Animals” value (A2780/CP tumor cells; 36 mg/kg QD PO, study day 11) was 10, the Wgt % change (A2780/CP tumor cells; 36 mg/kg QD PO, study day 11) was 5.48% and the “Mean Tumor Mass” value (A2780/CP tumor cells; 36 mg/kg QD PO, study day 16) was 2354.5 mg. For the same compound, the “Median Tumor Mass” value (A2780/CP tumor cells; 36 mg/kg QD PO, study day 16) was 2441.8 mg, the “No. Surviving Animals” value (A2780/CP tumor cells; 36 mg/kg QD PO, study day 16) was 10 and the Wgt % change (A2780/CP tumor cells; 36 mg/kg QD PO, study day 16) was 15.86%. The “Mean Tumor Mass” value (A2780/CP tumor cells; 36 mg/kg QD PO, study day 19) was 1858.8 mg, the “Median Tumor Mass” value (A2780/CP tumor cells; 36 mg/kg QD PO, study day 19) was 1568.0 mg and the “No. Surviving Animals” value (A2780/CP tumor cells; 36 mg/kg QD PO, study day 19) was 4. The Wgt % change (A2780/CP tumor cells; 36 mg/kg QD PO, study day 19) was 12.79%, the “Mean Tumor Mass” value (A2780/CP tumor cells; 36 mg/kg QD PO, study day 22) was 2456.9 mg and the “Median Tumor Mass” value (A2780/CP tumor cells; 36 mg/kg QD PO, study day 22) was 2384.6 mg. The “No. Surviving Animals” value (A2780/CP tumor cells; 36 mg/kg QD PO, study day 22) was 3, the Wgt % change (A2780/CP tumor cells; 36 mg/kg QD PO, study day 22) was 8.50% and the “rate of tumor mass growth” value (A2780/CP tumor cells; 18 and 36 mg/kg QD PO vs control group, FIGS. 7 to 9, Table I) was “significantly reduced”. The “tumor vascularity (CD31)” value [1] was “decreased tumor vascularity” and the “VEGF mRNA (relative amount)” value (VEGF mRNA) was “dramatic reduction”.
